# Test results reported in patent publication US10295537B2, “Biorecognition elements for rapid detection of biocontamination” (The United States of America, as represented by the …, priority 2017, dated 2019).
# Ends that are not written are not given here.
# Tested on: P. stutzeri cells
# Test: Fluorometry of P. stutzeri cells labeled with peptide-QD525 conjugates
# Assay type: cell-based
# Conditions: emission peak at 525 nm, 1×10^9 P. stutzeri cells
# Procedure: The emission peak fluorescence at 525 nm of 1×10^9 P. stutzeri cells labeled with peptide-QD525 conjugates was measured in a fluorometer and relative fluorescence units (“RFIU”) were compared (Table 6 and 7, above). Peptides OBP11 and OBP12 targeting OprF, and peptide OPP1 targeting Opr86 presented fluorescence levels that greatly surpassed the other selected peptides for the respective target. OPP1, OBP11, and OBP12 were selected for further characterization and validation.
# (§1) Bacterial stocks for experimentation were prepared by harvesting overnight grown bacterial cells by centrifugation at 11000×g for 15 min (at 4° C.), washed once with 1×PBS, pH 7.2, and re-suspended in 1×PBS to a concentration of 1×10^9 cells/mL. Bacterial titers were determined by measuring optical density at 600 nm and confirmed by colony counting on LB agar plates. Cell pellets produced by centrifuging 1 mL of the 1×10^9 cells/mL stock were re-suspended in 38 μL of 1×PBS and 62 μL of 2.4 μM peptide-QD was added to a final concentration of 1.5 μM. Cells were incubated for 30 min at 25° C. Cell pellets were washed three-times with 0.5 mL PBS and re-suspended in 500 μL PBS for fluorescence assays and imaging. Dilutions ranging from 1×10^9 cells to 1×10^4 cells were prepared using standard bacteriological techniques and 0.5 mL samples were used for fluorescence measurements.
# (§2) Emission spectra were obtained using Cary Eclipse Fluorimeter with excitation at 330 nm, scan rate of 120 nm/imin, and PMT voltage of 1000V. Spectra were corrected for background and dilution factor when appropriate.
row,Substance,Fluorescence (RFU)
1,"M H N L N L L (MHNLNLL; Artificial sequence obtained through biopanning.) [OPP2, Opr86 peptide BRE]",1847 ± 52
2,"L R P L M N R (LRPLMNR; Artificial sequence obtained through biopanning.) [OPP4, Opr86 peptide BRE]",1383 ± 74
3,"P R I R K S H (PRIRKSH; Artificial sequence obtained through biopanning.) [OPP1, Opr86 peptide BRE]",12258 ± 2060
4,QITLRST (Artificial sequence obtained through biopanning.) [OBP7],2625 ± 543

# Tested on: Opr86
# Test: Solution biopanning against biotinylated Opr86 extracellular loop fragment, three rounds of selection
# Assay type: binding, P. aeruginosa
# Conditions: Bushnell-Haas pH 8.5 with 1% Jet-A
# Procedure: Generally, solution-phase biopanning was carried out as described by the manufacturer (New England Biolabs, Ipswich, Mass.) with some modifications, including the changing of pH from 7.0 to 5.5 and 8.5 and adding 1% v/v of Jet A fuel. The first round of selection was carried out by diluting Ph.D.-7 bacteriophage library 100-fold in 0.1% Tris buffer saline plus Tween 20 (0.1% TBST) at the appropriate pH for selection plus fuel. Subsequently, the phage library was incubated with 1 μg of N-terminal biotinylated target protein fragment (OprF1: […] (SEQ. ID No. 1), OprF2: ADIKNLADFMK QYPSTSTT (SEQ. ID No. 2), Opr86: […] STP (SEQ. ID No. 3)) for 1 hr at 25° C. Phage-protein complexes were captured with 50 μL of streptavidin magnetic microbeads, unbound phages were removed, and the pellet sample washed 10-times with 1 mL of 1× Tris buffer saline (“TBS”) plus 0.05% TBST to remove weakly bound phage particles. Bound bacteriophages were eluted from the beads by lowering the pH (0.2 M Glycine-HCl, pH 2.2) while rotating gently for 10 min at 25° C. After neutralization with 1 M Tris-HCl, pH 9.1, eluted phages were amplified by infection of E. coli strain ER 2738 grown in Luria-Bertani (“LB”) broth medium until early-log phase (OD600 0.1-0.5). Titer of the amplified phage (more than 10^10 pfu/mL) was determined by infection into E. coli ER2738 and subsequent growth in selective medium containing X gal/IPTG. Amplified phages from round 1 were pre-cleared with streptavidin-coated magnetic microbeads (50 μL) to further remove non-specific binders and then used as the input phage for round 2 of selection. Enrichment of the bacteriophage pool was achieved by performing […] of selection under the appropriate pH plus jet fuel condition. Genomic DNA from individual clones was sequenced by GenScript (Piscataway, N.J.).
# The particular region of the Opr86 extracellular loop of sequence […] (SEQ. ID No. 3) was chemically synthesized with a biotin capture element and used as target epitope for BRE development in solution biopanning in Bushnell-Haas, pH 8.5, supplemented with 1% Jet-A. Following the previously established procedure for OprF, several unique Opr86 peptide BREs (“OPPs”) were identified after three rounds of selection (Table 7, above).
row,Substance,% Abundance [%]
1,"M H N L N L L (MHNLNLL; Artificial sequence obtained through biopanning.) [OPP2, Opr86 peptide BRE]",2
2,"L R P L M N R (LRPLMNR; Artificial sequence obtained through biopanning.) [OPP4, Opr86 peptide BRE]",3
3,"P R I R K S H (PRIRKSH; Artificial sequence obtained through biopanning.) [OPP1, Opr86 peptide BRE]",3

# Tested on: A. venetianus ATCC 31012
# Test: Detection of bacteria recovered from spiked 1 L Jet A fuel with peptide-QD545 (LOD, fluorescence)
# Assay type: cell-based
# Conditions: not given
# Procedure: (§3) To test the applicability of the peptide BRE-QD chemistry in the detection of bacteria in fuel and characterize the LOD in such system, bacterial cells from 1 L jet fuel samples spiked with different levels of bacteria were recovered, labeled, and detected.
# (§4) One liter Jet A fuel samples were amended with 1 mL of 1×PBS containing either A. venetianus ATCC 31012 or P. stutzeri at the appropriate test concentration was added to 1 L of Jet A fuel. The inoculated jet fuel samples were thoroughly mixed by vortex for 1 min and allowed to stand for 20 min to 30 min. To recover the cells, 1 mL of 1×PBS, named bacterial recovery solution (“BRS”), was added to the jet fuel samples, the samples shaken by hand, allowed stand for 5 min, and, then, 1 mL of the aqueous phase was collected using a long serological pipette. The 1 mL of solution with bacteria was centrifuged for 5 min at 11000×g, and washed three times with 1 mL of 1×PBS. Bacterial pellets were individually labeled using a final concentration 1.5 μM peptide-QD. The LOD was defined as the lowest concentration level that could be determined to be statistically different from QD labeled cells from the results of multiple testers. The actual cell level (colony-forming units, “CFU”) detected was determined by plating a portion of the sample after being subjected to the labeled procedure.
# (§5) Cells in the 1 L of fuel were recovered with 1 mL of BRS. Efficient labeling of the bacteria was indicated by high levels of fluorescence detected from the cell wall by fluorescence microscopy (FIG. 13 and Table 10, below). FIG. 14 is a similar image but of fungus (Hormoconis) labeled by peptide-QD605. The LOD was reliably determined from assays performed by multiple testers.
row,Substance,LOD
1,QD545-OBP12: peptide OBP12 conjugated to quantum dot QD545 (PKRTPRH; also: conjugated to quantum dot QD545),5×10^5 CFU/mL of BRS
2,QD545-OBP11: peptide OBP11 conjugated to quantum dot QD545 (PIKTNRK; also: conjugated to quantum dot QD545),5×10^5 CFU/mL of BRS
3,QD545-OPP1: peptide OPP1 conjugated to quantum dot QD545 (PRIRKSH; also: conjugated to quantum dot QD545),5×10^4 CFU/mL of BRS

# Same assay, conditions: 1 L Jet A, 1.5 μM peptide-QD
row,Substance,LOD (CFU)
1,QD545-OBP12: peptide OBP12 conjugated to quantum dot QD545 (PKRTPRH; also: conjugated to quantum dot QD545),5 × 10^5 CFU
2,QD545-OBP11: peptide OBP11 conjugated to quantum dot QD545 (PIKTNRK; also: conjugated to quantum dot QD545),5 × 10^5 CFU
3,QD545-OPP1: peptide OPP1 conjugated to quantum dot QD545 (PRIRKSH; also: conjugated to quantum dot QD545),5 × 10^5 CFU

# Same assay, conditions: 1 L Jet A, at LOD
row,Substance,Fluorescence (RFU)
1,QD545-OPP1: peptide OPP1 conjugated to quantum dot QD545 (PRIRKSH; also: conjugated to quantum dot QD545),773

# Same assay, conditions: below reproducible LOD
row,Substance,"detection possible down to, in some instances"
1,QD545-OBP12: peptide OBP12 conjugated to quantum dot QD545 (PKRTPRH; also: conjugated to quantum dot QD545),5×10^4 CFU/mL of BRS
2,QD545-OBP11: peptide OBP11 conjugated to quantum dot QD545 (PIKTNRK; also: conjugated to quantum dot QD545),5×10^4 CFU/mL of BRS
3,QD545-OPP1: peptide OPP1 conjugated to quantum dot QD545 (PRIRKSH; also: conjugated to quantum dot QD545),5×10^3 CFU/mL of BRS

# Tested on: P. stutzeri
# Test: as above
# Assay type: cell-based
# Conditions: not given
# Procedure: as §3, §4, §5
row,Substance,LOD
1,QD545-OBP12: peptide OBP12 conjugated to quantum dot QD545 (PKRTPRH; also: conjugated to quantum dot QD545),5×10^5 CFU/mL of BRS
2,QD545-OBP11: peptide OBP11 conjugated to quantum dot QD545 (PIKTNRK; also: conjugated to quantum dot QD545),5×10^5 CFU/mL of BRS
3,QD545-OPP1: peptide OPP1 conjugated to quantum dot QD545 (PRIRKSH; also: conjugated to quantum dot QD545),5×10^4 CFU/mL of BRS

# Same assay, conditions: 1 L Jet A, 1.5 μM peptide-QD
row,Substance,LOD (CFU)
1,QD545-OBP12: peptide OBP12 conjugated to quantum dot QD545 (PKRTPRH; also: conjugated to quantum dot QD545),5 × 10^5 CFU
2,QD545-OBP11: peptide OBP11 conjugated to quantum dot QD545 (PIKTNRK; also: conjugated to quantum dot QD545),5 × 10^5 CFU
3,QD545-OPP1: peptide OPP1 conjugated to quantum dot QD545 (PRIRKSH; also: conjugated to quantum dot QD545),5 × 10^5 CFU

# Same assay, conditions: 1 L Jet A, at LOD
row,Substance,Fluorescence (RFU)
1,QD545-OBP12: peptide OBP12 conjugated to quantum dot QD545 (PKRTPRH; also: conjugated to quantum dot QD545),"12,205 RFU"
2,QD545-OPP1: peptide OPP1 conjugated to quantum dot QD545 (PRIRKSH; also: conjugated to quantum dot QD545),820 RFU

# Same assay, conditions: below reproducible LOD
row,Substance,"detection possible down to, in some instances"
1,QD545-OBP12: peptide OBP12 conjugated to quantum dot QD545 (PKRTPRH; also: conjugated to quantum dot QD545),5×10^4 CFU/mL of BRS
2,QD545-OBP11: peptide OBP11 conjugated to quantum dot QD545 (PIKTNRK; also: conjugated to quantum dot QD545),5×10^4 CFU/mL of BRS
3,QD545-OPP1: peptide OPP1 conjugated to quantum dot QD545 (PRIRKSH; also: conjugated to quantum dot QD545),5×10^3 CFU/mL of BRS

# Biological target: biotinylated bovine serum albumin (BSA) (Bos taurus, UniProt P02769)
# Test: Biopanning against biotinylated BSA to identify target-unrelated peptides
# Assay type: binding
# Conditions: phage displaying the peptide, round 3
# Excerpt: The phage library was then screened to identify target-unrelated peptides by using biotinylated bovine serum albumin (“BSA”) as a target for biopanning.
# Sequence of biotinylated bovine serum albumin (BSA) (P02769 25-607): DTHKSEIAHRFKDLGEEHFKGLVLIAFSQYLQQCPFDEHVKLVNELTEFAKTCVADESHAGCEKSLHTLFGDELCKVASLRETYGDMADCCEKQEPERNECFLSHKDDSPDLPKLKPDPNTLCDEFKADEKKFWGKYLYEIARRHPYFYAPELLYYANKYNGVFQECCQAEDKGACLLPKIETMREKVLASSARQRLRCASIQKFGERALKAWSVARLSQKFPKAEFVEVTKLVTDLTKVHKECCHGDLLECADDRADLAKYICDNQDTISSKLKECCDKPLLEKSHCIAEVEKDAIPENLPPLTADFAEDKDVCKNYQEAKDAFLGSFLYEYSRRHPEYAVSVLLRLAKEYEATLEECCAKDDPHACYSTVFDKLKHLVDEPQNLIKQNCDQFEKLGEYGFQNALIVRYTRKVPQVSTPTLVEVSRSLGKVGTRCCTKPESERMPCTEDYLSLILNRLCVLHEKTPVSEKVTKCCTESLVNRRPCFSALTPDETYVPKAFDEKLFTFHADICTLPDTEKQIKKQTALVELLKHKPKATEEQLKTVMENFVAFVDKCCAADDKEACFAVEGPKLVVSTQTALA
row,Substance,cross-reaction with BSA
1,IQTNPTM (Artificial sequence obtained through biopanning.),cross-react with BSA

# Tested on: Gram negative (P. stutzeri, P. alkaligenes, P. aeruginosa, A. venetianus) and Gram positive (Arthrobacter sp., Lynsinibacillus sp.) bacteria
# Test: Fluorescence microscopy of fuel degrading bacteria labeled with peptide BRE-QD545
# Assay type: cell-based
# Conditions: 1×10^9 cells, QD545, 1.5 μM
# Procedure: (§6) To characterize the specificity of the peptide BRE-QD545 conjugates for the intended bacterial groups, fluorescence imaging and fluorometric analysis were performed using different Gram negative and Gram positive fuel degrading bacteria. As such, cultures comprising 1×10^9 cells of Gram negative bacteria (P. stutzeri, P. alkaligenes, P. aeruginosa and A. venetianus) and Gram positive bacteria (Arthrobacter sp. and Lynsinibacillus sp.) were labeled with OPP1, OBP11 and OBP12 biofunctionalized QD545 and visualized using fluorescence microscopy (FIGS. 5-10) and the fluorescence quantified using a fluorometer (FIG. 11).
# as §1
# 10 μL of the prepared sample was placed on a microscope slide, covered with a coverslip, and visualized on an Nikon Eclipse Ti-E inverted microscope equipped with X-Cite LED lamp, a fluorescence filter set (a bandpass exciter 405 nm and a longpass emission filter), a 1.25-numerical-aperture oil-immersion objective (DPlan 100×, Nikon). Images were captured by Nikon DS-sCMOS camera.
row,Substance,labeling of bacteria in fluorescence micrographs
1,"P R I R K S H (PRIRKSH; Artificial sequence obtained through biopanning.) [OPP1, Opr86 peptide BRE]",specifically labeled Gram negative bacteria but not the Gram positive bacteria

# Tested on: Gram negative bacteria (A. venetianus and Pseudomonas spp.)
# Test: Fluorometry of fuel degrading bacteria labeled with peptide-QD545 conjugates (FIG. 11)
# Assay type: cell-based
# Conditions: 1×10^9 cells, QD545 conjugates, FIG. 11
# Procedure: as §6, §1, §2
row,Substance,detection of Gram negative bacteria by fluorometer
1,QD545-OPP1: peptide OPP1 conjugated to quantum dot QD545 (PRIRKSH; also: conjugated to quantum dot QD545),high fluorescence levels with all Gram negative bacteria tested
